Assay results published in patent US7524930B2, “Tumor antigen” (Green Peptide Co., Ltd, priority 2003, dated 2009).

How the values were obtained:
Format in all cases: cell-based, human
[1] = system: peripheral blood mononuclear cells derived from a cancer patient; assay: CTL induction by peptide from autologous PBMC of cancer patient, IFN-γ production on recognition of target cells (Example 5); details: for Recognition of tumor cells by PBMC stimulated in vitro with peptide (IFN-γ production): SW620, CA9-22 and Panc-1 HLA-A2+ tumor cells, result in words; for IFN-γ production from peripheral blood mononuclear cells in recognition of target cells: PBMC stimulated with 10 μM peptide
Description: Among the peptides that were able to enhance IFN-γ production from the OK-CTLp or OK-CTL clone in Example 4, those from P1 to P19 were examined for their ability to induce CTL from peripheral blood mononuclear cells derived from a cancer patient. The method for inducing CTL by a peptide was according to the well-known method (J. Exp. Med., 187:277-288, 1998; Cancer Res., 59:4056-4063, 1999.) Specifically, autologous peripheral blood mononuclear cells (PBMC) derived from a cancer patient, from whom OK-CTLp was obtained, were incubated together with the peptide (10 μM.) The cells were re-stimulated at day 10 and 14 after the start of culturing, using autologous PBMCs as an antigen presenting cell (APC) which were pulsed with 10 μM of the same peptide for 2 h and exposed to irradiation (30 gray.) At day 21 after the start of culturing, the cells were collected to test for surface phenotype. In addition, the cells were examined for the recognition of various target cells, using IFN-γ production measured by ELISA when they were cultured together with the target cells as an indicator. As a target cells, SW620 cell, CA9-22 cell, and Panc-1 cell, which are the HLA-A2^+ tumor cells, were used.

[2] = system: peripheral blood mononuclear cells derived from a cancer patient; assay: as above; details: PBMC stimulated with 10 μM peptide
OK-CTLp or OK-CTL clone = assay: Recognition of peptide-pulsed T2 cells by OK-CTLp or OK-CTL clone (IFN-γ ELISA)
[3] = concentration of peptide 0.1 μM

| Sequence | Recognition of tumor cells by PBMC stimulated in vitro with peptide (IFN-γ production) [1] | IFN-γ production from peripheral blood mononuclear cells in recognition of target cells ([1]; target CA9-22 (HLA-A0207/24)) | IFN-γ production from peripheral blood mononuclear cells in recognition of target cells ([1]; target Panc-1 (HLA-A0201/11)) | IFN-γ production from peripheral blood mononuclear cells in recognition of target cells ([1]; target SW620 (HLA-A0201/24)) | IFN-γ production from peripheral blood mononuclear cells in recognition of target cells ([2]; target COLO320 (HLA-A24/24)) | IFN-γ production from peripheral blood mononuclear cells in recognition of target cells ([2]; target QG56 (HLA-A26/26)) | IFN-γ production from peripheral blood mononuclear cells in recognition of target cells ([2]; target RERF-LC-MS (HLA-A11/11)) | IFN-γ production (OK-CTLp or OK-CTL clone; [3]) | IFN-γ production (OK-CTLp or OK-CTL clone; concentration of peptide 1 μM) | IFN-γ production (OK-CTLp or OK-CTL clone; concentration of peptide 10 μM) | IFN-γ production (OK-CTLp or OK-CTL clone; concentration of peptide 50 μM) |
| --- | --- | --- | --- | --- | --- | --- | --- | --- | --- | --- | --- |
| CLYGNVEKV (Designed peptide having an ability to activate HLA-A2 restricted Cytotoxic T lymphocytes) [Peptide P7, Gene 2 (HNRPL) 404-412] | induced CTL recognizing any one of the HLA-A2^+ tumor cells | 0 pg/mL | 54 pg/mL | 344 pg/mL | 0 pg/mL | 0 pg/mL | 0 pg/mL | – | – | – | – |
| DLLSHAFFA [Peptide P18] | produced IFN-γ in a significant amount | 70 pg/mL | >1000 pg/mL | >1000 pg/mL | 0 pg/mL | 29 pg/mL | 0 pg/mL | – | – | – | – |
| ELLNRYLYL [Peptide P27] | – | – | – | – | – | – | – | 352 pg/mL | 889 pg/mL | 250 pg/mL | 0 pg/mL |
| FMFGQKLNV (Designed peptide having an ability to activate HLA-A2 restricted Cytotoxic T lymphocytes) [Peptide P8, Gene 2 (HNRPL) 443-451] | produced IFN-γ in a significant amount | 165 pg/mL | 186 pg/mL | 142 pg/mL | 0 pg/mL | 0 pg/mL | 26 pg/mL | – | – | – | – |
| ILGELREKV (Designed peptide having an ability to activate HLA-A2 restricted Cytotoxic T lymphocytes) [Peptide P11, Gene 3 (WHSC2) 141-149] | produced IFN-γ in a significant amount | 62 pg/mL | >1000 pg/mL | 893 pg/mL | 0 pg/mL | 0 pg/mL | 0 pg/mL | – | – | – | – |
| ILPRKHHRI (Designed peptide having an ability to activate HLA-A2 restricted Cytotoxic T lymphocytes) [Peptide P5, Gene 1 (UBE2V) 208-216] | produced IFN-γ in a significant amount | 96 pg/mL | 638 pg/mL | 500 pg/mL | 38 pg/mL | 0 pg/mL | 0 pg/mL | – | – | – | – |
| LIMLQNALT [Peptide P28] | – | – | – | – | – | – | – | 898 pg/mL | – | 0 pg/mL | 144 pg/mL |
| LIMLQNALTT (LLMLQNALTT; Designed peptide having an ability to activate HLA-A2 restricted Cytotoxic T lymphocytes) [Peptide P31, Gene 7 1358-1367] | – | – | – | – | – | – | – | 443 pg/mL | – | – | 314 pg/mL |
| LLLLARWEDT (Designed peptide having an ability to activate HLA-A2 restricted Cytotoxic T lymphocytes) [Peptide P2, Gene 1 (UBE2V) 64-73] | induced CTL recognizing any one of the HLA-A2^+ tumor cells | 0 pg/mL | 0 pg/mL | 53 pg/mL | 5 pg/mL | 0 pg/mL | 0 pg/mL | – | – | – | – |
| LLQDWHVIL (Designed peptide having an ability to activate HLA-A2 restricted Cytotoxic T lymphocytes) [Peptide P4, Gene 1 (UBE2V) 201-209] | induced CTL recognizing any one of the HLA-A2^+ tumor cells | 0 pg/mL | 0 pg/mL | 60 pg/mL | 0 pg/mL | 0 pg/mL | 0 pg/mL | – | – | – | – |
| MLPLECQYL (Designed peptide having an ability to activate HLA-A2 restricted Cytotoxic T lymphocytes) [Peptide P12, Gene 3 (WHSC2) 157-165] | induced CTL recognizing any one of the HLA-A2^+ tumor cells | 0 pg/mL | 197 pg/mL | 46 pg/mL | 40 pg/mL | 0 pg/mL | 0 pg/mL | – | – | – | – |
| NVLHFFNAPL (Designed peptide having an ability to activate HLA-A2 restricted Cytotoxic T lymphocytes) [Peptide P9, Gene 2 (HNRPL) 501-510] | produced IFN-γ in a significant amount | 98 pg/mL | 339 pg/mL | 194 pg/mL | 0 pg/mL | 0 pg/mL | 27 pg/mL | – | – | – | – |
| QILKGLLFL (Designed peptide having an ability to activate HLA-A2 restricted Cytotoxic T lymphocytes) [Peptide P16, Gene 5 (ppMAPkkk) 290-298] | induced CTL recognizing any one of the HLA-A2^+ tumor cells | 147 pg/mL | 113 pg/mL | 0 pg/mL | 0 pg/mL | 0 pg/mL | 0 pg/mL | – | – | – | – |
| RIQEWCSVI (RLQEWCSVI; Designed peptide having an ability to activate HLA-A2 restricted Cytotoxic T lymphocytes) [Peptide P1, Gene 1 (UBE2V) 43-51] | produced IFN-γ in a significant amount | 81 pg/mL | 492 pg/mL | 235 pg/mL | 50 pg/mL | 0 pg/mL | 26 pg/mL | – | – | – | – |
| TLLRKERGV (Designed peptide having an ability to activate HLA-A2 restricted Cytotoxic T lymphocytes) [Peptide P13, Gene 3 (WHSC2) 267-275] | produced IFN-γ in a significant amount | 95 pg/mL | 115 pg/mL | 151 pg/mL | 0 pg/mL | 0 pg/mL | 15 pg/mL | – | – | – | – |
